Data reported in the supplement of paper PMC4862054.
“And” between values parts separate entries of the source, which are not always exact repeats. Equal values may be shown once.

Columns and labels:
Details in all cases: incubation time: 72 h
HDQ-P1 [1] = assay: normalised viability (% of control), CellTiter-Blue; higher = more viable cells (about 100 = DMSO control)
How it was run: (§1)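 384-well plates were pre-loaded with compound in 5 µl medium before 20 µl of breast cancer cell suspension was seeded. Following 72 h incubation, 2.5 µl CellTiter-Blue reagent was added for 2 h at 37 °C. Fluorescence was read at 560/590 nm and plates were normalised to vehicle (100) and a positive kill control (0), checked by Z'-factor. Normalised viability is reported at a single listed concentration of the series.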

DU-4475 [2] = assay: as above
How it was run: as §1

Hs578T [3] = assay: as above
How it was run: as §1

CAL-148 [4] = assay: as above
How it was run: as §1

CAL-85-1 [5] = assay: as above
How it was run: as §1

MDA-MB-436 [6] = assay: as above
How it was run: as §1

HDQ-P1 [7] = assay: drug sensitivity score (DSS), CellTiter-Glo (DSS (AUC-based score)); higher = stronger drug effect (viability inhibition or cytotoxicity); extreme values may be limits of the assay
How it was run: (§2)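 In 384-well plates, compound was laid out at 5 concentrations in 10-fold steps over a 10,000-fold range specific to each compound, and breast cancer cell lines were seeded on top in 20 µl suspension for a 72 h incubation. CellTox Green fluorescence and then CellTiter-Glo luminescence were read, and each plate was normalised to 0.1 % DMSO and a positive kill control. The drug sensitivity score was calculated from the area under the fitted dose-response curve.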

BT-474 = assay: as above
How it was run: as §2

MDA-MB-231 = assay: as above
How it was run: as §2

HCC1143 = assay: as above
How it was run: as §2

CAL-51 = assay: as above
How it was run: as §2

MDA-MB-453 = assay: as above
How it was run: as §2

MDA-MB-468 = assay: as above
How it was run: as §2

SK-BR-3 = assay: as above
How it was run: as §2

DU-4475 [8] = assay: as above
How it was run: as §2

Hs578T [9] = assay: as above
How it was run: as §2

CAL-148 [10] = assay: as above
How it was run: as §2

HCC1937 = assay: as above
How it was run: as §2

HCC1599 = assay: as above
How it was run: as §2

MFM-223 = assay: as above
How it was run: as §2

CAL-120 = assay: as above
How it was run: as §2

CAL-85-1 [11] = assay: as above
How it was run: as §2

MDA-MB-436 [12] = assay: as above
How it was run: as §2

BT-549 = assay: as above
How it was run: as §2

MCF-10A = assay: as above
How it was run: as §2

| SMILES | normalised viability (HDQ-P1 [1]; 3 nM) | normalised viability (DU-4475 [2]; 3 nM) | normalised viability (Hs578T [3]; 1000 nM) | normalised viability (CAL-148 [4]; 3 nM) | normalised viability (CAL-85-1 [5]; 3 nM) | normalised viability (MDA-MB-436 [6]; 1000 nM) | drug sensitivity score (HDQ-P1 [7]) | drug sensitivity score (BT-474) | drug sensitivity score (MDA-MB-231) | drug sensitivity score (HCC1143) | drug sensitivity score (CAL-51) | drug sensitivity score (MDA-MB-453) | drug sensitivity score (MDA-MB-468) | drug sensitivity score (SK-BR-3) | drug sensitivity score (DU-4475 [8]) | drug sensitivity score (Hs578T [9]) | drug sensitivity score (CAL-148 [10]) | drug sensitivity score (HCC1937) | drug sensitivity score (HCC1599) | drug sensitivity score (MFM-223) | other results |
| --- | --- | --- | --- | --- | --- | --- | --- | --- | --- | --- | --- | --- | --- | --- | --- | --- | --- | --- | --- | --- | --- |
| CCCCCOC(=O)Nc1nc(=O)n([C@@H]2O[C@H](C)[C@@H](O)[C@H]2O)cc1F [Capecitabine] | 94.8% and 95.5% | 91.8% and 93.5% | 101% and 104% | 91.9% and 96% | 87.5% and 102% | 72.3% and 89% | 0 | 0 | 0 | 0 | 0 | 0 | 0 | 0 | 0 | 0 | 0 | 0 | 0 | 0 | normalised viability (HDQ-P1 [1]; 30 nM): 91.5%; normalised viability (HDQ-P1 [1]; 100 nM): 102% and 94.6%; normalised viability (DU-4475 [2]; 30 nM): 83.6% and 88.7%; normalised viability (DU-4475 [2]; 100 nM): 90.9% and 114%; normalised viability (Hs578T [3]; 10 nM): 105% and 116%; normalised viability (Hs578T [3]; 10000 nM): 107% and 93.6%; normalised viability (CAL-148 [4]; 30 nM): 89.1% and 88.1%; normalised viability (CAL-148 [4]; 100 nM): 92.8% and 107%; normalised viability (CAL-85-1 [5]; 30 nM): 88.5% and 90.9%; normalised viability (CAL-85-1 [5]; 100 nM): 91.8% and 103%; normalised viability (MDA-MB-436 [6]; 10000 nM): 83.6% and 89%; drug sensitivity score (CAL-120): 0; drug sensitivity score (CAL-85-1 [11]): 0; drug sensitivity score (MDA-MB-436 [12]): 0.812; drug sensitivity score (BT-549): 0; drug sensitivity score (MCF-10A): 0 |
| CC(C)C[C@H](NC(=O)[C@H](CCc1ccccc1)NC(=O)CN1CCOCC1)C(=O)N[C@@H](Cc1ccccc1)C(=O)N[C@@H](CC(C)C)C(=O)[C@@]1(C)CO1 [Carfilzomib] | 98.9% | 88.3% | 1.15% | 97.8% | 86% | 10.9% | 20.7 | 21.8 | 21.4 | 23.5 | 22.1 | 22.7 | 29.9 | 26.9 | 15.4 | 22.9 | 17.4 | 20.6 | 10.9 | 28.1 | normalised viability (HDQ-P1 [1]; 0.3 nM): 105%; normalised viability (HDQ-P1 [1]; 10 nM): 56.7%; normalised viability (DU-4475 [2]; 0.3 nM): 100%; normalised viability (DU-4475 [2]; 10 nM): 64.4%; normalised viability (Hs578T [3]; 1 nM): 126%; normalised viability (Hs578T [3]; 100 nM): 1.45%; normalised viability (CAL-148 [4]; 0.3 nM): 101%; normalised viability (CAL-148 [4]; 10 nM): 94.5%; normalised viability (CAL-85-1 [5]; 0.3 nM): 107%; normalised viability (CAL-85-1 [5]; 10 nM): 72.1%; normalised viability (MDA-MB-436 [6]; 1 nM): 96.8%; normalised viability (MDA-MB-436 [6]; 100 nM): 6.97%; drug sensitivity score (CAL-120): 19; drug sensitivity score (CAL-85-1 [11]): 25.2; drug sensitivity score (MDA-MB-436 [12]): 26.5; drug sensitivity score (BT-549): 29.5; drug sensitivity score (MCF-10A): 12.2 |
| Nc1nc(Cl)nc2c1ncn2[C@@H]1O[C@H](CO)[C@@H](O)[C@@H]1F [Clofarabine] | 105% | 90.6% | 67.3% | 82.6% | 95.8% | 47.6% | 3.38 | 5.27 | 1.71 | 10.8 | 17.6 | 0 | 11.7 | 12.7 | 6.22 | 1.74 | 8.43 | 0 | 9.47 | 0 | normalised viability (HDQ-P1 [1]; 30 nM): 106%; normalised viability (HDQ-P1 [1]; 100 nM): 88.9%; normalised viability (DU-4475 [2]; 30 nM): 92.8%; normalised viability (DU-4475 [2]; 100 nM): 94.4%; normalised viability (Hs578T [3]; 10 nM): 98.1%; normalised viability (Hs578T [3]; 10000 nM): 61.5%; normalised viability (CAL-148 [4]; 30 nM): 87.8%; normalised viability (CAL-148 [4]; 100 nM): 83.3%; normalised viability (CAL-85-1 [5]; 30 nM): 90.4%; normalised viability (CAL-85-1 [5]; 100 nM): 82.6%; normalised viability (MDA-MB-436 [6]; 10 nM): 109%; normalised viability (MDA-MB-436 [6]; 10000 nM): 56%; drug sensitivity score (CAL-120): 4.58; drug sensitivity score (CAL-85-1 [11]): 10.6; drug sensitivity score (MDA-MB-436 [12]): 16; drug sensitivity score (BT-549): 14.3; drug sensitivity score (MCF-10A): 5.94 |
| CCN(CC)CCOc1ccc(C(=C(Cl)c2ccccc2)c2ccccc2)cc1 [Clomifene] | 133% | 101% | 121% | 88.2% | 91.3% | 109% | 0 | 4.51 | 5.02 | 0 | 0 | 5.37 | 0 | 2.09 | 2.97 | 4.79 | 0 | 5.68 | 6.16 | 2.2 | normalised viability (HDQ-P1 [1]; 30 nM): 130%; normalised viability (HDQ-P1 [1]; 100 nM): 114%; normalised viability (DU-4475 [2]; 30 nM): 98.4%; normalised viability (DU-4475 [2]; 100 nM): 111%; normalised viability (Hs578T [3]; 10 nM): 105%; normalised viability (Hs578T [3]; 10000 nM): 59.8%; normalised viability (CAL-148 [4]; 30 nM): 94.8%; normalised viability (CAL-148 [4]; 100 nM): 101%; normalised viability (CAL-85-1 [5]; 30 nM): 92.4%; normalised viability (CAL-85-1 [5]; 100 nM): 91.2%; normalised viability (MDA-MB-436 [6]; 10 nM): 119%; normalised viability (MDA-MB-436 [6]; 10000 nM): 27.5%; drug sensitivity score (CAL-120): 0; drug sensitivity score (CAL-85-1 [11]): 3.91; drug sensitivity score (MDA-MB-436 [12]): 0; drug sensitivity score (BT-549): 1.96; drug sensitivity score (MCF-10A): 1.05 |
| C[C@@H]1C[C@H]2[C@@H]3CCC4=CC(=O)C=C[C@]4(C)[C@@]3(F)[C@@H](O)C[C@]2(C)[C@@]1(O)C(=O)CO [Dexamethasone] | 111% | 90% | 122% | 93.6% | 102% | 89.6% | 4.16 | 0 | 0 | 0 | 0 | 4 | 0 | 0 | 0 | 0 | 0 | 0 | 0 | 0 | normalised viability (HDQ-P1 [1]; 30 nM): 100%; normalised viability (HDQ-P1 [1]; 100 nM): 108%; normalised viability (DU-4475 [2]; 30 nM): 86.9%; normalised viability (DU-4475 [2]; 100 nM): 98.3%; normalised viability (Hs578T [3]; 10 nM): 120%; normalised viability (Hs578T [3]; 10000 nM): 98%; normalised viability (CAL-148 [4]; 30 nM): 108%; normalised viability (CAL-148 [4]; 100 nM): 99.2%; normalised viability (CAL-85-1 [5]; 30 nM): 93.1%; normalised viability (CAL-85-1 [5]; 100 nM): 110%; normalised viability (MDA-MB-436 [6]; 10 nM): 127%; normalised viability (MDA-MB-436 [6]; 10000 nM): 104%; drug sensitivity score (CAL-120): 10.1; drug sensitivity score (CAL-85-1 [11]): 0; drug sensitivity score (MDA-MB-436 [12]): 0; drug sensitivity score (BT-549): 0; drug sensitivity score (MCF-10A): 0 |
